Experimental data reported in patent US11505543B2, “4-oxo-3,4-dihydroquinazoline compounds as inhibitors of human immunodeficiency virus replication” (VIIV HEALTHCARE UK (NO.5) LIMITED, priority 2018, dated 2022).

Assays:
[1] = test system: recombinant NL4-3 virus (nef section replaced with Renilla luciferase gene) in MT-2 cells; experiment: HIV cell culture assay (antiviral activity, luciferase readout); assay type: cell-based; settings: Renilla, NL43, MT-2 cells infected for 4-5 days with recombinant NL4-3 Renilla luciferase virus, serial dilutions of compound
In short: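 EC50 was derived by median-effect curve fitting of luciferase activity. The signal comes from MT-2 cells infected for 4–5 days with 293T-produced NL4-3 reporter virus, nef partly replaced by Renilla luciferase, in the presence of serially diluted compound.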

[2] = Compound cytotoxicity, XTT-based colorimetric assay; assay type: cell-based; settings: human, uninfected MT2 cells, day 4, XTT
In short: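 Run under the antiviral-assay protocol but without virus. Viability was read on day 4 and CC50 values were derived from the readout.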

Compound | EC50 [1] [nM] | CC50 at 4 day [2] [nM]
O=C(Cn1ccc(C2CC2)n1)N[C@@H](Cc1cc(F)cc(F)c1)c1nc2cc(-c3ccccc3-c3ccccc3)ccc2c(=O)n1-c1ccc(S(=O)(=O)N2CCOCC2)cc1 [Example 146, (S)-N-(1-(7-([1,1′-biphenyl]-2-yl)-3-(4-(morpholinosulfonyl)phenyl)-4-oxo-3,4-dihydroquinazolin-2-yl)-2-(3,5-difluorophenyl)ethyl)-2-(3-cyclopropyl-1H-pyrazol-1-yl)acetamide] | 69 | > 500
COc1ccc(-c2ccc3c(=O)n(-c4ccc(S(=O)(=O)N5CCOCC5)cc4)c([C@H](Cc4cc(F)cc(F)c4)NC(=O)Cn4nc(C(F)F)c5c4C(F)(F)[C@@H]4C[C@H]54)nc3c2)cn1 [Example 112, 2-((3bS,4aR)-3-(difluoromethyl)-5,5-difluoro-3b,4,4a,5-tetrahydro-1H-cyclopropa[3,4]cyclopenta[1,2-c]pyrazol-1-yl)-N-((S)-2-(3,5-difluorophenyl)-1-(7-(6-methoxypyridin-3-yl)-3-(4-(morpholinosulfonyl)phenyl)-4-oxo-3,4-dihydroquinazolin-2-yl)ethyl)acetamide] | 4 | > 1000
O=C(Cc1ccn(C2CC2)n1)N[C@@H](Cc1cc(F)cc(F)c1)c1nc2cc(-c3ccccc3F)ccc2c(=O)n1-c1ccc(Cl)c2c(NS(=O)(=O)C3CC3)nn(CC(F)F)c12 [Example 139, (S)-N-(1-(3-(4-chloro-3-(cyclopropanesulfonamido)-1-(2,2-difluoroethyl)-1H-indazol-7-yl)-7-(2-fluorophenyl)-4-oxo-3,4-dihydroquinazolin-2-yl)-2-(3,5-difluorophenyl)ethyl)-2-(1-cyclopropyl-1H-pyrazol-3-yl)acetamide] | 0.57 | > 500
O=C(Cn1nc(C(F)F)c2c1C(F)(F)[C@@H]1C[C@H]21)N[C@@H](Cc1cc(F)cc(F)c1)c1nc2cc(-c3ccc(Cl)cc3Cl)ccc2c(=O)n1-c1ccc(S(=O)(=O)N2CCOCC2)cc1 [Example 80, N-((S)-1-(7-(2,4-dichlorophenyl)-3-(4-(morpholinosulfonyl)phenyl)-4-oxo-3,4-dihydroquinazolin-2-yl)-2-(3,5-difluorophenyl)ethyl)-2-((3bS,4aR)-3-(difluoromethyl)-5,5-difluoro-3b,4,4a,5-tetrahydro-1H-cyclopropa[3,4]cyclopenta[1,2-c]pyrazol-1-yl)acetamide] | 8 | > 1000
Cn1nc(NS(C)(=O)=O)c2c(Cl)ccc(-n3c([C@H](Cc4cc(F)cc(F)c4)NC(=O)Cn4nc(C(F)F)c5c4C(F)(F)[C@@H]4C[C@H]54)nc4cc(-c5cc(F)c(F)c(F)c5)ccc4c3=O)c21 (atropisomer, axis not shown; (aR)) [Example 108, N-((S)-1-(3-(4-chloro-1-methyl-3-(methylsulfonamido)-1H-indazol-7-yl)-4-oxo-7-(3,4,5-trifluorophenyl)-3,4-dihydroquinazolin-2-yl)-2-(3,5-difluorophenyl)ethyl)-2-((3bS,4aR)-3-(difluoromethyl)-5,5-difluoro-3b,4,4a,5-tetrahydro-1H-cyclopropa[3,4]cyclopenta[1,2-c]pyrazol-1-yl)acetamide] | 0.78 | > 1000
Cc1cc(C)nc(-c2ccc3c(=O)n(-c4ccc(Cl)c5c(NS(C)(=O)=O)nn(C)c45)c([C@H](Cc4cc(F)cc(F)c4)NC(=O)Cn4nc(C(F)(F)F)c5c4C(F)(F)[C@@H]4C[C@H]54)nc3c2)n1 [Example 141, N-((S)-1-(3-(4-chloro-1-methyl-3-(methylsulfonamido)-1H-indazol-7-yl)-7-(4,6-dimethylpyrimidin-2-yl)-4-oxo-3,4-dihydroquinazolin-2-yl)-2-(3,5-difluorophenyl)ethyl)-2-((3bS,4aR)-5,5-difluoro-3-(trifluoromethyl)-3b,4,4a,5-tetrahydro-1H-cyclopropa[3,4]cyclopenta[1,2-c]pyrazol-1-yl)acetamide] | 0.11 | > 500
CS(=O)(=O)Nc1nn(CC(F)(F)F)c2c(-n3c([C@H](Cc4cc(F)cc(F)c4)NC(=O)Cn4nc(C(F)F)c5c4C(F)(F)[C@@H]4C[C@H]54)nc4cc(-c5ccccc5S(C)(=O)=O)ccc4c3=O)ccc(Cl)c12 [Example 167, N-((S)-1-(3-(4-chloro-3-(methylsulfonamido)-1-(2,2,2-trifluoroethyl)-1H-indazol-7-yl)-7-(2-(methylsulfonyl)phenyl)-4-oxo-3,4-dihydroquinazolin-2-yl)-2-(3,5-difluorophenyl)ethyl)-2-((3bS,4aR)-3-(difluoromethyl)-5,5-difluoro-3b,4,4a,5-tetrahydro-1H-cyclopropa[3,4]cyclopenta[1,2-c]pyrazol-1-yl)acetamide] | 0.08 | > 500
COc1cccc(-c2ccc3c(=O)n(-c4ccc(Cl)c5c(NS(C)(=O)=O)nn(C)c45)c([C@H](Cc4cc(F)cc(F)c4)NC(=O)Cn4nc(C(F)F)c5c4C(F)(F)[C@@H]4C[C@H]54)nc3c2)n1 (atropisomer, axis not shown; (aR)) [Example 46, N-((S)-1-(3-(4-chloro-1-methyl-3-(methylsulfonamido)-1H-indazol-7-yl)-7-(6-methoxypyridin-2-yl)-4-oxo-3,4-dihydroquinazolin-2-yl)-2-(3,5-difluorophenyl)ethyl)-2-((3bS,4aR)-3-(difluoromethyl)-5,5-difluoro-3b,4,4a,5-tetrahydro-1H-cyclopropa[3,4]cyclopenta[1,2-c]pyrazol-1-yl)acetamide] | 0.56 | > 1000
Cn1nc(NS(C)(=O)=O)c2c(Cl)ccc(-n3c([C@H](Cc4cc(F)cc(F)c4)NC(=O)Cn4nc(C(F)F)c5c4C(F)(F)[C@@H]4C[C@H]54)nc4cc(-c5ccc(Oc6ccccc6)cc5)ccc4c3=O)c21 (atropisomer, axis not shown; (aR)) [Example 14, N-((S)-1-(3-(4-chloro-1-methyl-3-(methylsulfonamido)-1H-indazol-7-yl)-4-oxo-7-(4-phenoxyphenyl)-3,4-dihydroquinazolin-2-yl)-2-(3,5-difluorophenyl)ethyl)-2-((3bS,4aR)-3-(difluoromethyl)-5,5-difluoro-3b,4,4a,5-tetrahydro-1H-cyclopropa[3,4]cyclopenta[1,2-c]pyrazol-1-yl)acetamide] | 9.8 | > 1000
CC(C)S(=O)(=O)c1ccccc1-c1ccc2c(=O)n(-c3ccc(Cl)c4c(NS(C)(=O)=O)nn(C)c34)c([C@H](Cc3cc(F)cc(F)c3)NC(=O)Cn3nc(C(F)F)c4c3C(F)(F)[C@@H]3C[C@H]43)nc2c1 (atropisomer, axis not shown; (aR)) [Example 120, N-((S)-1-(3-(4-chloro-1-methyl-3-(methylsulfonamido)-1H-indazol-7-yl)-7-(2-(isopropylsulfonyl)phenyl)-4-oxo-3,4-dihydroquinazolin-2-yl)-2-(3,5-difluorophenyl)ethyl)-2-((3bS,4aR)-3-(difluoromethyl)-5,5-difluoro-3b,4,4a,5-tetrahydro-1H-cyclopropa[3,4]cyclopenta[1,2-c]pyrazol-1-yl)acetamide] | 0.13 | > 500
